According to patent US20090318491A1 (priority 2006, published 2009):

How the values were obtained:
[1] = target: T1, α3β4* nAChR (Bos taurus, UniProt Q07263+Q8SPU6); test: biochemical; format: binding, calf
T1 construct: 100 μL of the calf adrenal membrane protein fraction (60-70 μg); from tissue; host or cells: calf adrenals, membrane fraction
Protocol: Preparation of Calf Adrenals
Frozen calf adrenals (−80° C.) were placed on ice for 30-60 min and allowed to thaw slowly before they were cut into small pieces. After determination of the wet weight (4-6 g), the tissue was homogenised in HSS-buffer (Ultraturrax at 750 rpm). The homogenate was centrifuged (30,000×g, 10 min, 4° C.), the pellets collected and washed. This procedure was repeated five times. The buffer volume used to re-suspend the pellets was calculated on the basis of the wet weight in a ratio 1:6.5.
The prepared tissues were stored in aliquots at −80° C. One hour before the experiments the tissues were slowly thawed, homogenised in HSS-buffer and centrifuged (25,000×g, 20 min, 4° C.). The pellets were re-suspended in fresh HSS-buffer and used for radioligand binding assays.
Competition Assay Using (±)-[^3H]Epibatidine ([^3H]Epi) and Calf Adrenals Membrane Fraction (α3β4*nAChR)
Each assay sample, with a total volume of 500 μL contained 200 μL of the test compound, 100 μL of (±)-[^3H]epibatidine, 100 μL of the calf adrenal membrane protein fraction (60-70 μg) and 100 μM of HSS-buffer. Non-specific binding was determined in the presence of 300 μM (−)-nicotine tartrate salt. The samples were homogenised and incubated for 90 min at 22° C. The incubation was terminated by vacuum filtration through glass fibre filters presoaked in 1% poly(ethyleneimine). The filters were rinsed three times with TRIS-buffer, punched out and transferred into 4 mL scintillation vials. The scintillation vials were filled with scintillation cocktail (2 mL) and the radioactivity was measured using a liquid scintillation counter.

[2] = target: T2, α7* nAChR (Rattus norvegicus, UniProt Q05941); test: Competition assay using [3H]methyllycaconitine and rat brain P2-fraction; format: binding; settings: preliminary results; read-out: α7* [3H]MLA rat brain Ki
T2 construct: Frozen rat brains were thawed slowly before the preparation of the P2 rat brain membrane fraction; from tissue; host or cells: rat brain P2 membrane fraction
Protocol: (§1) Preparation of Rat Brains
(§2) Frozen rat brains were thawed slowly before the preparation of the P2 rat brain membrane fraction (30-60 min on ice, afterwards at room temperature). […] After the determination of the wet weight (1.32 g on average), the brains were pressed into a pulp using a syringe and homogenised in saccharose buffer with a glass teflon homogenizator (Potter, 10 seconds). The tissue was then centrifuged (1,000×g, 20 min, 4° C.), the supernatant (S1) aspirated with a Pasteur pipette and stored on ice. The P1 pellet was re-suspended in saccharose buffer and the centrifugation was repeated. The supernatant S1′ was collected and added to the supernatant S1. The combined supernatants were centrifuged (25,000×g, 20 min, 4° C.), the supernatant S2 was removed and the pellet P2 collected and diluted with HSS-buffer. The buffer volume added was calculated on the basis of the wet weight in a ratio 1:2.
(§3) The final pellet was stored in aliquots at −80° C. On the day of the experiment, the P2 membrane fraction was thawed, diluted with HSS-buffer (30-fold volume), homogenised and centrifuged (35,000×g, 10 min, 4° C.). The collected pellet was suspended in HSS-buffer and used in the radioligand binding experiments.
Competition Assay Using [^3H]Methyllycaconitine ([^3H]MLA) and Rat Brain P2-Fraction (α7*nAChR)
A dilution row of 6-9 concentrations of the test compound was prepared. Each assay sample, with a total volume of 250 μL contained 50 μL of the test compound, 100 μL of [^3H]MLA and 100 μL of the P2-membrane protein fraction (60-70 μg). Non-specific binding was determined in the presence of 1 μM MLA. The samples were homogenised and incubated for 120 min at 22° C. The incubation was terminated by vacuum filtration through glass fibre filters pre-soaked in 1% poly(ethyleneimine). The filters were rinsed three times with TRIS-buffer, punched out and transferred into 4 mL scintillation vials. The scintillation vials were filled with scintillation cocktail (2 mL) and the radioactivity was measured using a liquid scintillation counter.
Assays were carried out in duplicates, triplicates or quadruplicates.

[3] = target: T3, α4β2* nAChR (Rattus norvegicus, UniProt P09483+P12390); test: biochemical; format: binding
T3 construct: Frozen rat brains were thawed slowly before the preparation of the P2 rat brain membrane fraction; from tissue; host or cells: rat brain (without cerebellum and medulla), P2 membrane fraction
Protocol: as §1, §2, §3
Competition Assay Using (±)-[^3H]Epibatidine ([^3H]Epi) and Rat Brain P2-Fraction (α4β2*nAChR)
(§4) A dilution row of 6-9 concentrations of the test compound was prepared. Each assay sample, with a total volume of 500 μL contained 100 μL of the membrane protein (60 μg), 100 μL of (±)-[^3H]epibatidine (0.5 nM), 100 μL of HSS-buffer and 200 μL of the test compound Non-specific binding was determined in the presence of 300 μM (−)-nicotine tartrate salt. The samples were homogenised and incubated for 90 min at 22° C. The incubation was terminated by vacuum filtration through glass fibre filters pre-soaked in 1% poly(ethyleneimine). The filter were rinsed three times with TRIS-buffer, punched out and transferred into 4 mL scintillation vials. The scintillation vials were filled with scintillation cocktail (2 mL) and the radioactivity was measured using a liquid scintillation counter.
Assays were carried out in duplicate, triplicates or quadruplicates.
(§5) Biological evaluation of the compounds on various nicotinic actylcholine receptors (nAChRs) was conducted with cells described below. […] Functional agonist activity of the cytisines in cells using a fluorescence assay sensitive to changes in cytosolic calcium.

[4] = target: T4, (α1)2β1γδ nAChR (Tetronarce californica, UniProt P02710+P02714+P02718); test: biochemical; format: binding, Torpedo californica
T4 construct: 100 μL of the Torpedo californica electroplax fraction (60-70 μg); from tissue; host or cells: Torpedo californica electric organ (electroplax) membranes
Protocol: Preparation of Torpedo californica Electroplax
Frozen samples of Torpedo californica electric organ (−80° C.) were placed on ice for 30-60 min and allowed to thaw slowly before the membrane preparation. The tissue was homogenised in an ice-cold HSS-buffer (Ultraturrax at 750 rpm) and centrifuged (30,000×g, 10 min, 4° C.). The pellets were collected, washed four times with HSS-buffer through re-homogenization and centrifugation at the same settings. The remaining pellets were collected, re-suspended in HSS and stored in aliquots at −80° C.
One hour before the experiments the tissues were slowly thawed, homogenised in HSS-buffer and centrifuged (25,000×g, 20 min, 4° C.). The pellets were re-suspended in fresh HSS-buffer and used for radioligand binding assays.
Competition Assay Using (±)-[^3H]Epibatidine ([^3H]Epi) and Torpedo californica Electroplax ((α1)2β1γδ nAChR)
as §4, with “μL contained 200 μL” for “μL contained 100 μL of the membrane protein (60 μg), 100 μL of (±)-[^3H]epibatidine (0.5 nM), 100 μL of HSS-buffer and 200 μL”, “the test compound, 100 μL of (±)-[^3H]epibatidine and 100 μL of the Torpedo californica electroplax fraction (60-70 μg). Non-specific binding” for “the test compound Non-specific binding”, “poly(ethyleneimine). The filters were rinsed” for “poly(ethyleneimine). The filter were rinsed”
Assays were carried out in duplicates, triplicate or quadruplicates.
as §5

T2 sequence (Q05941 23-502): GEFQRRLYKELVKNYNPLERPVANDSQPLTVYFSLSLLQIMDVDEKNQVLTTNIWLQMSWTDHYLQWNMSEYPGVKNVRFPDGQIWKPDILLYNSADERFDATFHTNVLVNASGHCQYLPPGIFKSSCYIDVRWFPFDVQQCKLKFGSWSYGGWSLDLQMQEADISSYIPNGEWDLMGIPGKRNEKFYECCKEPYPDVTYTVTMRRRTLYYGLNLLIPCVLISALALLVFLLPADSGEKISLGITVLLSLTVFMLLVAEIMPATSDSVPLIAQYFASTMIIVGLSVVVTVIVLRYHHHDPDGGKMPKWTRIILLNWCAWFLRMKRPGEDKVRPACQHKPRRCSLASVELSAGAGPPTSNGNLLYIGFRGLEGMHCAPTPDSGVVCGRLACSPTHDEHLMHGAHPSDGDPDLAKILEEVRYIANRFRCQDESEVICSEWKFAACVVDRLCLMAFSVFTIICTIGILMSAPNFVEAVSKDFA
T4 sequence (P02710 25-461): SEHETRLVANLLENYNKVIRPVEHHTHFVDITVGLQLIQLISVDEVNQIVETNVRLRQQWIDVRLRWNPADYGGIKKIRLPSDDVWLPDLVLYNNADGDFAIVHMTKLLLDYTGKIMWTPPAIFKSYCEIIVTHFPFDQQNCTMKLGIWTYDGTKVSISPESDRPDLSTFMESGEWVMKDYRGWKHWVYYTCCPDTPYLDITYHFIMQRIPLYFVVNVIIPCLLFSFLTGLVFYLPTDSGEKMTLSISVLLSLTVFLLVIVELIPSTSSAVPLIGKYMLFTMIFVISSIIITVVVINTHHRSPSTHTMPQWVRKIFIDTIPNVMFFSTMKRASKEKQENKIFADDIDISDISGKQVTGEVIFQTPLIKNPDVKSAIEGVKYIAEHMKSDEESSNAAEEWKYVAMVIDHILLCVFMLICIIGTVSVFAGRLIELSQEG
T4 sequence (P02712 25-493, further chain): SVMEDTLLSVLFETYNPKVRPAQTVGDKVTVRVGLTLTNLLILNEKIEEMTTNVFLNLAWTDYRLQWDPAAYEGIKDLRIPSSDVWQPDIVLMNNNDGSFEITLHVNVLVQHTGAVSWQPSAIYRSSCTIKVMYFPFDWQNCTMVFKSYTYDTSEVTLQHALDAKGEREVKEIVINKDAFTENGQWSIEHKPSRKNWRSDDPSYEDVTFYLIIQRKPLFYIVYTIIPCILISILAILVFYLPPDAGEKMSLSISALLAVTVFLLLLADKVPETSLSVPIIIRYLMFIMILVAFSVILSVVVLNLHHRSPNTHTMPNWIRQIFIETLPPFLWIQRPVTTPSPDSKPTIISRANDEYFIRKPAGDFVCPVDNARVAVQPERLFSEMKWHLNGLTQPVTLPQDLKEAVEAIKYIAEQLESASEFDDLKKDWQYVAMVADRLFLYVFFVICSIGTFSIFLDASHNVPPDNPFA
T4 sequence (P02718 22-522): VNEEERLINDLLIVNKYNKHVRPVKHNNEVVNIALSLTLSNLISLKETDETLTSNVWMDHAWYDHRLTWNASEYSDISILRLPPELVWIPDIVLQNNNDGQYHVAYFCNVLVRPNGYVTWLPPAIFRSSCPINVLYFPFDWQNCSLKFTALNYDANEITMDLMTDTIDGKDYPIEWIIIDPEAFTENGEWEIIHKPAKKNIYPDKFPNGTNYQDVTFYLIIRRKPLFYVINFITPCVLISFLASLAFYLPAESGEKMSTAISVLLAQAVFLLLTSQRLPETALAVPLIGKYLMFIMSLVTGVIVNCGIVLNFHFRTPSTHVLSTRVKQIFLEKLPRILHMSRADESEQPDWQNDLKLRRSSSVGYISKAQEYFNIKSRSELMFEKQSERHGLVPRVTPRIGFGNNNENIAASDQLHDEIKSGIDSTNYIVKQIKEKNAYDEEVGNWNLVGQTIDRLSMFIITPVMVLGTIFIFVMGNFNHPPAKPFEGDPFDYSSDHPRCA
T4 sequence (P02714 18-506): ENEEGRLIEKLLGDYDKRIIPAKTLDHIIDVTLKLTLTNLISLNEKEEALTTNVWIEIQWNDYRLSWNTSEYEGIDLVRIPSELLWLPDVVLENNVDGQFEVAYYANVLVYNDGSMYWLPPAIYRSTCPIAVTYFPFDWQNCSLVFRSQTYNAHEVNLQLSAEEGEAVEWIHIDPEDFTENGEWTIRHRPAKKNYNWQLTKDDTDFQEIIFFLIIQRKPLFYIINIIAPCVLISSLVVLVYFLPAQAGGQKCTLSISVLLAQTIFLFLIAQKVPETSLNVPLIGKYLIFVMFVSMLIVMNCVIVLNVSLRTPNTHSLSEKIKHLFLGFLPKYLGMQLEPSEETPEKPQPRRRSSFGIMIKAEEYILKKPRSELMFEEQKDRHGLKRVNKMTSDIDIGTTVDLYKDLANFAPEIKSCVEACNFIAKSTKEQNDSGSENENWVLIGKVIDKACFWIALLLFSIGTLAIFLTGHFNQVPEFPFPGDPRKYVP
T1 sequence (Q07263 22-495): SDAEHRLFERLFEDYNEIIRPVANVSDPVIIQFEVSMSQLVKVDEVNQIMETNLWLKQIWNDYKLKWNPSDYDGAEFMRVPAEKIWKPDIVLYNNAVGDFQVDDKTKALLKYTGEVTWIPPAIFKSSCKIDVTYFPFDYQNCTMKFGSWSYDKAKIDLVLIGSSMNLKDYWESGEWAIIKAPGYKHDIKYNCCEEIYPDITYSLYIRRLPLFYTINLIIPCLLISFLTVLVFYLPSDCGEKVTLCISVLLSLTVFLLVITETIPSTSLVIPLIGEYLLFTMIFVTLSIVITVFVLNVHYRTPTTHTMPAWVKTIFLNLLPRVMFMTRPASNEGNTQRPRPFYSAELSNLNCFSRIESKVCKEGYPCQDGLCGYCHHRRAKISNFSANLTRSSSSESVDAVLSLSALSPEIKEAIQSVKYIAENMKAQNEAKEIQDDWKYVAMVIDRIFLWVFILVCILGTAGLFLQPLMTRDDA
T1 sequence (Q8SPU6 20-496): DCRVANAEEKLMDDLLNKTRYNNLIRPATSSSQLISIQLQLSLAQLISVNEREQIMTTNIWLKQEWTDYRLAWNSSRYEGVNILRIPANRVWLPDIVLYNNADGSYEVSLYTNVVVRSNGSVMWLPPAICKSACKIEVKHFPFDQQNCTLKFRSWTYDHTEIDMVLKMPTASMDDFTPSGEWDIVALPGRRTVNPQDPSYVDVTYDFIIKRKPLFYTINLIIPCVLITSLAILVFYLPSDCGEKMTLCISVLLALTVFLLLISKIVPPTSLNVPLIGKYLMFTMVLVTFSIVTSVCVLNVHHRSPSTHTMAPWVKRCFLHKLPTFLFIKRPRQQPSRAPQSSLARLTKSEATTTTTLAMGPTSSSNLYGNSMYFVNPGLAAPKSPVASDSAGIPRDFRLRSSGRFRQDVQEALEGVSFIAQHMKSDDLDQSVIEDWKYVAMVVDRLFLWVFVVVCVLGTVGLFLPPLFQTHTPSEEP
T3 sequence (P12390 25-500): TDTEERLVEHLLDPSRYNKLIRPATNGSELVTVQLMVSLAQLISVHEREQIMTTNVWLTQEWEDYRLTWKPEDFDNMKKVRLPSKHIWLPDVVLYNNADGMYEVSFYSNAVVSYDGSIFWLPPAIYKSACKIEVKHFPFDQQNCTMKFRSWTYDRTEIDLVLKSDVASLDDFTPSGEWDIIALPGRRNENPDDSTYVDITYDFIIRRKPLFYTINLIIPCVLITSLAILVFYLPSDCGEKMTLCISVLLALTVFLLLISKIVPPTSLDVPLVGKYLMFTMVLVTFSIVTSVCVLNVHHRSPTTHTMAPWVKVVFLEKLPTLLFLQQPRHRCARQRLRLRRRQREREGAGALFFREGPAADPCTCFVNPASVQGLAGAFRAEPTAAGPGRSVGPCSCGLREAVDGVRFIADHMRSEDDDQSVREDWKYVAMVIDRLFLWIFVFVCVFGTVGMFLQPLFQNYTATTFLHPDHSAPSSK
T3 sequence (P09483 31-630): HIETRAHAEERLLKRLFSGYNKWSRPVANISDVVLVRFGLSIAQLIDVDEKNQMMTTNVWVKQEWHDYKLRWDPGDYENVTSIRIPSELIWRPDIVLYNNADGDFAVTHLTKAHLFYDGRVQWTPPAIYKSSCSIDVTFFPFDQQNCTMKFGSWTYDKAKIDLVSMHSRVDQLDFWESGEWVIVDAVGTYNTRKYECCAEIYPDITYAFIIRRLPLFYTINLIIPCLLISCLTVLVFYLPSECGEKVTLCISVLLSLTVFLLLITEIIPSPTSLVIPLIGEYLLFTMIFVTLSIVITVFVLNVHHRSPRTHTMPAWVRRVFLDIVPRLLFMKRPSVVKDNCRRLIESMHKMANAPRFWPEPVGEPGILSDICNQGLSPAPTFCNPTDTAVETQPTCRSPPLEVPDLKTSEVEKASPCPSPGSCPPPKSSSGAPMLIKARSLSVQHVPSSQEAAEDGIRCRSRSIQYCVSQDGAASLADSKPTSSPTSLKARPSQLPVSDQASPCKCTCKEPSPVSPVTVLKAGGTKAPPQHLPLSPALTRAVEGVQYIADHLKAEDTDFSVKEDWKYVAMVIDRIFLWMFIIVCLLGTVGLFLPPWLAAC

| Structure (SMILES) | Ki [1] | Ki [2] | Ki [3] | Ki [4] |
| --- | --- | --- | --- | --- |
| O=c1c(-c2cccc(OC(F)(F)F)c2)ccc2n1C[C@@H]1CNC[C@H]2C1 [97e, 3-(3′-Trifluoromethoxy-phenyl)-cytisine] | > 10 µM | > 10 µM | 0.067 µM | > 10 µM |
| O=c1ccc(-c2cccc(C(F)(F)F)c2)c2n1C[C@@H]1CNC[C@H]2C1 [106e, 5-(3′-Trifluoromethyl-phenyl)-cytisine] | > 10 µM | > 10 µM | 0.055 µM | > 10 µM |
| O=c1ccc(-c2cccnc2)c2n1C[C@@H]1CNC[C@H]2C1 [125e, 5-(Pyridin-3′-yl)-cytisine] | 4.3 µM | > 10 µM | 0.0109 µM | > 10 µM |
| O=c1c(-c2cccc(C(F)(F)F)c2)ccc2n1C[C@@H]1CNC[C@H]2C1 [96e, 3-(3′-Trifluoromethyl-phenyl)-cytisine] | 3.7 µM | > 10 µM | 0.0083 µM | > 10 µM |
| O=c1c(-c2cccc(Cl)c2)ccc2n1C[C@@H]1CNC[C@H]2C1 [98e, 3-(3′-Chloro-phenyl)-cytisine] | > 10 µM | > 10 µM | 0.199 µM | > 10 µM |
| Cn1cc(-c2ccc3n(c2=O)CC2CNCC3C2)cn1 (centres unmarked) [122e, 3-(1-Methyl-1H-pyrazol-4′-yl)-cytisine] | 0.033 µM | > 10 µM | 0.000177 µM | > 5 µM |
| O=c1ccc(-c2ccc3[nH]ccc3c2)c2n1C[C@@H]1CNC[C@H]2C1 [123e, (1H-Indol-5′-yl)-cytisine] | > 10 µM | > 10 µM | 0.0204 µM | > 10 µM |
| Cn1cc(-c2ccc(=O)n3c2[C@H]2CNC[C@H](C2)C3)cn1 [126e, 5-(1-Methyl-1H-pyrazol-4′-yl)-cytisine] | 0.656 µM | > 10 µM | 0.0022 µM | > 10 µM |
| O=c1ccc(-c2cccc([N+](=O)[O-])c2)c2n1C[C@@H]1CNC[C@H]2C1 [104e, 5-(3′-Nitro-phenyl)-cytisine] | 0.481 µM | > 10 µM | 0.0037 µM | > 10 µM |
| Cc1cccc(-c2ccc(=O)n3c2[C@H]2CNC[C@H](C2)C3)c1 [105e, 5-(3′-Methyl-phenyl)-cytisine] | > 10 µM | > 10 µM | 0.024 µM | > 10 µM |
| O=c1c(-c2ccc3[nH]ccc3c2)ccc2n1C[C@@H]1CNC[C@H]2C1 [117e, 3-(1H-Indol-5′-yl)-cytisine] | > 10 µM | > 10 µM | 0.853 µM | > 10 µM |
| O=c1c(-c2cccc(-c3ccccc3)c2)ccc2n1C[C@@H]1CNC[C@H]2C1 [100e, 3-(Biphenyl-3′-yl)-cytisine] | > 10 µM | > 10 µM | 0.2 µM | > 10 µM |
| O=c1ccc(-c2cccc(-c3ccccc3)c2)c2n1C[C@@H]1CNC[C@H]2C1 [110e, 5-(Biphenyl-3′-yl)-cytisine] | > 10 µM | > 10 µM | 0.19 µM | > 10 µM |
| O=c1c(-c2cccnc2)ccc2n1CC1CNCC2C1 (centres unmarked) [drawing 100] | – | – | 0.00091 µM | > 10 µM |
| O=c1c(-c2ccccc2)cc(Br)c2n1C[C@@H]1CNC[C@H]2C1 [128e, 5-Bromo-3-phenyl-cytisine] | > 5 µM | > 10 µM | 0.131 µM | > 10 µM |
| O=c1c(-c2cccnc2)ccc2n1CC1CNCC2C1 (centres unmarked) [119e, 3-(Pyridin-3′-yl)-cytisine] | – | > 10 µM | – | – |
| O=c1c(-c2ccc3c(c2)OCO3)ccc2n1C[C@@H]1CNC[C@H]2C1 [118e, 3-(3′,4′-Methylenedioxy-phenyl)-cytisine] | > 10 µM | – | – | > 10 µM |
| O=c1ccc(-c2cccc(OC(F)(F)F)c2)c2n1C[C@@H]1CNC[C@H]2C1 [107e, 5-(3′-Trifluoromethoxy-phenyl)-cytisine] | > 10 µM | > 10 µM | 0.023 µM | > 10 µM |
| O=c1c(-c2cccc([N+](=O)[O-])c2)ccc2n1C[C@@H]1CNC[C@H]2C1 [94e, 3-(3′-Nitro-phenyl)-cytisine] | > 2 µM | > 10 µM | 0.023 µM | > 10 µM |
| O=c1ccc(-c2cccc(F)c2)c2n1C[C@@H]1CNC[C@H]2C1 [109e, 5-(3′-Fluoro-phenyl)-cytisine] | > 2 µM | > 10 µM | 0.3 µM | > 10 µM |
| O=c1c(-c2ccccc2)ccc2n1C[C@@H]1CNC[C@H]2C1 [93e, 3-Phenyl-cytisine] | > 10 µM | – | – | > 10 µM |
| O=c1ccc(-c2ccc3c(c2)OCO3)c2n1C[C@@H]1CNC[C@H]2C1 [124e, 5-(3′,4′-Methylenedioxy-phenyl)-cytisine] | > 10 µM | > 10 µM | 0.096 µM | > 10 µM |
| O=c1ccc(-c2cccc(Cl)c2)c2n1C[C@@H]1CNC[C@H]2C1 [108e, 5-(3′-Chloro-phenyl)-cytisine] | > 10 µM | > 10 µM | 0.17 µM | > 10 µM |
| O=c1ccc(-c2ccccc2)c2n1C[C@@H]1CNC[C@H]2C1 [103e, 5-Phenyl-cytisine] | > 10 µM | > 10 µM | 0.045 µM | > 10 µM |
| O=c1c(-c2cccc(F)c2)ccc2n1C[C@@H]1CNC[C@H]2C1 [99e, 3-(3′-Fluoro-phenyl)-cytisine] | 1.2 µM | > 10 µM | 0.0057 µM | > 10 µM |
| O=c1c(-c2ccncc2)ccc2n1C[C@@H]1CNC[C@H]2C1 [120e, 3-(Pyridin-4′-yl)-cytisine] | – | – | – | > 10 µM |
| O=c1c(-c2cccc3cccnc23)ccc2n1C[C@@H]1CNC[C@H]2C1 [121e, 3-Quinolin-8′-yl-cytisine] | > 10 µM | > 10 µM | 0.095 µM | > 10 µM |
| O=c1c(-c2cccnc2)cc(Br)c2n1C[C@@H]1CNC[C@H]2C1 [129e, 5-Bromo-3-(pyridin-3′-yl)-cytisine] | > 2 µM | > 10 µM | 0.092 µM | > 10 µM |
| Cc1cccc(-c2ccc3n(c2=O)C[C@@H]2CNC[C@H]3C2)c1 [95e, 3-(3′-Methyl-phenyl)-cytisine] | > 10 µM | > 10 µM | 0.028 µM | > 10 µM |
